One data set has as its target I2 Imidazoline Receptor. Put plainly: Binding study towards I2 imidazoline receptor subtype in rat brain ([3H]2-BFI displacement). The note with it: read-out: [3H]2-BFI binding IC50; rat whole brain membranes, [3H]-2BFI 2.5x10-9 M, 90 min at 25° C. The method, then:
Binding Study Towards I2 Imidazoline Receptor Subtype in Rat Brain.
Male Wistar rats (240-300 g, Harlan, Italy) were sacrificed by decapitation. Whole brains were immediately removed on ice and homogenised in 10 volumes of buffered sucrose (0.32M in 50 mM Tris-HCl, pH 7.4 at 4° C.) using a motor driven Teflon-glass homogeniser. The homogenate was centrifuged at 1000×g for 10 min at 4° C. The resultant supernatants were pooled and centrifuged at 32000×g for 20 min at 4° C. The supernatants were discarded and each pellet suspended in 10 volumes of assay buffer (50 mM Tris-HCl, 1 mM MgCl2, pH 7.4 at 4° C.) and spun at 32000×g for 20 min at 4° C. The pellets were washed twice by repeated centrifugation at 32000×g for 20 min at 4° C. The final pellets were stored at −80° C. until use. Prior to radioligand binding studies, membrane pellets were thawed and washed a further 4 times by re-suspension in 10 volumes of assay buffer (as above) and repeated centrifugation to remove any possible endogenous inhibitors of binding. […] Non specific binding was determined in the presence of 10^-5 M BU224 (Tocris Bioscience). The incubation, in a final volume of 1 ml, was performed in polystyrene multiwell 24, started adding membranes suspension and was carried out for 90 min at 25° C. With the exception of total binding and non specific binding, all concentration points were performed in duplicate. Compounds were tested in 3-5 different concentrations, ranging from 10^-10 M to 10^-5 M final concentration.

The target in the next data set is human recombinant MAO-A (Homo sapiens (Human), UniProt P21397). Put plainly: Monoaminooxidase (MAO) activity assay, MAO-Glo luminescent method, MAO-A. The note with it: read-out: MAO A activity IC50; human recombinant MAO-A, substrate 40 μM, 60 min room temperature.
The next data set concerns the target human recombinant MAO-B (Homo sapiens (Human), UniProt P27338). Put plainly: Monoaminooxidase (MAO) activity assay, MAO-Glo luminescent method, MAO-B.
The subject of a further data set is CD1 Mice. In words: Tail suspension test in mice. The format is in vivo. The note with it: Table 3; for MPE (% inhibition in immobility time): 30 min before the test. Here is the method:
Tail Suspension Test in Mice
To evaluate novel antidepressants compounds several animal models have been developed. […] The antidepressant effect of representative examples of compounds of formula (I) has been evaluated according to the procedure below. The immobility was induced according to the procedure of Stem et al. (1985). CD1 Mice (Harlan, Italy) were individually suspended 75 cm above the top with an adhesive tape placed 1 cm from the tip of the tail. Immobility duration was recorded for 5 min. Mice were considered immobile only when they hung passively and completely motionless. Compounds were given orally, 30 min before the test at doses ranging between 0.3 and 30 mg/kg. Data collected were expressed as mean percent effect (MPE), which represents the % of inhibition in immobility time between the animals treated with representative compounds of formula (I) and the controls that received only the vehicle.

Structures can show the parent of a compound that is named as a salt. Where two headings read alike, the source gives them in different places. Where only a bound is given, the exact number is not on record here.

The text below walks through data of patent publication US8633208B2, “6-1H-imidazo-quinazoline and quinolines derivatives, new MAO inhibitors and imidazoline receptor ligands” (Rottapharm S.p.A, priority 2008, dated 2014).

human recombinant MAO-A, sequence (P21397 whole entry): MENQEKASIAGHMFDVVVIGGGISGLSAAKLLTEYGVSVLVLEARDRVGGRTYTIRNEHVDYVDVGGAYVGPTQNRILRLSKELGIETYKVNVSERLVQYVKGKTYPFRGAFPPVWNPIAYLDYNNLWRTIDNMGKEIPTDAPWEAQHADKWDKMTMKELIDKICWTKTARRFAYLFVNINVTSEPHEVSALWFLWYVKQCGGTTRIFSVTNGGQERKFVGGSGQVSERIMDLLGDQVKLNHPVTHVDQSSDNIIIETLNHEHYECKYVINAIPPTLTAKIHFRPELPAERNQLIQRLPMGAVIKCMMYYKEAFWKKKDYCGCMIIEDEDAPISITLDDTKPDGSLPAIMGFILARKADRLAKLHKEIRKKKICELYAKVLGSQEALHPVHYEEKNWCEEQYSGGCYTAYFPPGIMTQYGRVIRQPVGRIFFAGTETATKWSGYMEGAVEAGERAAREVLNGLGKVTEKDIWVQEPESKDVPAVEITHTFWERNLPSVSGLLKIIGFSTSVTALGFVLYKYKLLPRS
human recombinant MAO-B, sequence (P27338 whole entry): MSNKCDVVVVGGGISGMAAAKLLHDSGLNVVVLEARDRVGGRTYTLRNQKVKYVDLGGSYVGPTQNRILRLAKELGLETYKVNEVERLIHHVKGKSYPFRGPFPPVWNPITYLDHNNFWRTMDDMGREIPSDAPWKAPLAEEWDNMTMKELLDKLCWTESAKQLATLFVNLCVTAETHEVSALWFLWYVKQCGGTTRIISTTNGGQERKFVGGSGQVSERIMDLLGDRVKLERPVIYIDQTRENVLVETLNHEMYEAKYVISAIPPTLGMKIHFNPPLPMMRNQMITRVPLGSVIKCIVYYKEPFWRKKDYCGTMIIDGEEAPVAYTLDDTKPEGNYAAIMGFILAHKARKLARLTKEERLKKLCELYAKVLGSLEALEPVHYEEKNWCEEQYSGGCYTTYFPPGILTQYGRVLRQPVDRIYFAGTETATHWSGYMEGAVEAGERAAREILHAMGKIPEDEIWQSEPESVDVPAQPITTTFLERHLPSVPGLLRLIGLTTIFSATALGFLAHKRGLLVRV
Experimental for human recombinant MAO-A: Monoaminooxidase (MAO) Activity Assay.
(§1) Inhibitory activity of compounds was evaluated by a homogeneous luminescent method, the MAO-Glo™ Assay (Promega), measuring the monoamine oxidase activity (MAOs) from recombinant source (microsomes from baculovirus infected insect cells, Sigma). Experiments were performed according to the Supplier's procedure, incubating human recombinant MAO-A or MAO-B with a luminogenic substrate, a derivative of beetle luciferin ((4S)-4,5-dihydro-2-(6-hydroxybenzothiazolyl)-4-thiazolecarboxylic acid). […] The MAO-Glo™ Assay was performed in two steps:
(§2) Step 1. The MAO reaction: MAO substrate was incubated with MAO-A or MAO-B (1 μg/sample) in the absence (Total activity) or presence (modulated activity) of test compounds. Total activity was determined in the presence the appropriate solvent. […] Reaction started adding the enzyme solution and samples were incubated for 60 min at room temperature. For negative control reaction, samples of MAO reaction buffer (100 mM Hepes, 5% glycerol, pH 7.5) indeed the test compound were included. For MAO-B activity assay, MAO reaction buffer contain 10% DMSO, in order to increase enzymatic activity. Step 2. […] At the end of incubation 50 μl of Luciferin Detection reagent were added to each well, plate was incubated at room temperature for 20 min, then luminescent signal was detected by luminometer (integration time 0.25-1 sec per well). […] Net MAO-dependent luminescence (net RLU) were calculated by subtracting the average luminescence of the negative control reaction without MAO enzyme. A reduction of net signal in the presence of test compound, with respect to total activity, reflect its effect on MAOs activity. […] A percentage of inhibition for each concentration tested were calculated and the IC50 value was estimated by linear regression.
Experimental for human recombinant MAO-B: Monoaminooxidase (MAO) Activity Assay.
as §1, §2

In the case of `Cc1cncn1-c1ccc2nc(-c3ccccc3)ncc2c1` (as salt: hydrochloride) [Example 5, [6-(5-methyl-1H-imidazol-1-yl)-2-phenyl]quinazoline], the melting point (in general, the temperature of the solid-liquid transition) was in the range of 138.5 to 139.1 °C.

Regarding `COc1ccc(-c2ccc3cc(-n4ccnc4)ccc3n2)cc1` [Example 18, [6-(1H-imidazol-1-yl)-2-(4-methoxyphenyl)]quinoline dihydrochloride], the IC50 (in general, the midpoint of a concentration-inhibition curve) on I2 Imidazoline Receptor was 1.9 µM; at human recombinant MAO-A it was 0.67 µM; at human recombinant MAO-B it was above 10 µM.

In the case of `Fc1ccc(-c2ccc3cc(-n4ccnc4)ccc3n2)cc1` (as salt: hydrochloride) [Example 21, [6-(1H-imidazol-1-yl)-2-(4-fluorophenyl)]quinoline dihydrochloride], the melting point was in the range of 280.7 to 282 °C.

For `CN(C)c1ccc(-c2ccc3cc(-n4ccnc4)ccc3n2)cc1` [Example 22, [6-(1H-imidazol-1-yl)-2-(4-dimethylaminophenyl)]quinoline trihydrochloride], the IC50 on I2 Imidazoline Receptor amounted to 3.78 µM; on human recombinant MAO-A, 2.09 µM; on human recombinant MAO-B (read-out: MAO B activity IC50, human recombinant MAO-B, substrate 4 μM, 60 min room temperature), 1.49 µM. Regarding `c1cn(-c2ccc3nc(-c4ccoc4)ccc3c2)cn1` (as salt: hydrochloride) [Example 20, [6-(1H-imidazol-1-yl)-2-(3-furyl)]quinoline dihydrochloride], the melting point was in the range of 293.1 to 295.6 °C.

With `COc1ccc(-c2ccc3cc(-n4ccnc4C)ccc3n2)cc1` (as salt: hydrochloride) [Example 26, [6-(2-methyl-1H-imidazol-1-yl)-2-(4-methoxyphenyl)]quinoline dihydrochloride], the melting point was 230 °C (dec.). Take `Cc1cc(OC(F)(F)F)ccc1-c1ccc2cc(-n3ccnc3)ccc2n1` (as salt: hydrochloride) [Example 24, [6-(1H-imidazol-1-yl)-2-(2-methyl-4-trifluoromethoxyphenyl)]quinoline dihydrochloride]: the melting point fell in the range of 269.7 to 274.5 °C. Still for that read-out and setting: with `Cc1cn(-c2ccc3nc(-c4ccc5c(c4)OCO5)ncc3c2)cn1` (as salt: hydrochloride) [Example 9, [6-(4-methyl-1H-imidazol-1-yl)-2-(1,3-benzodioxol-5-yl)]quinazoline] the figure was 215.3 to 218.7 °C. In turn, `FC(F)(F)Oc1ccc(-c2ccc3cc(-n4ccnc4)ccc3n2)cc1` (as salt: hydrochloride) [Example 23, [6-(1H-imidazol-1-yl)-2-(4-trifluoromethoxyphenyl)]quinoline dihydrochloride] yielded a melting point of 260 to 262 °C.

Compound `Cc1cn(-c2ccc3nc(-c4ccc(F)cc4)ccc3c2)cn1` (as salt: hydrochloride) [Example 32, [6-(4-methyl-1H-imidazol-1-yl)-2-(4-fluorophenyl)]quinoline dihydrochloride] showed a melting point of 264 to 268 °C. Regarding `C#CCN(C)CCCOc1ccc(Cl)cc1Cl` [Clorgyline, reference compound], the IC50 at I2 Imidazoline Receptor was determined as 1.53 µM. Take `C#CCN(C)[C@H](C)Cc1ccccc1` [Deprenyl, reference compound]: the IC50 at I2 Imidazoline Receptor was determined as 2.31 µM. Compound `CSc1ccc(-c2ccc3cc(-n4cnc(C)c4)ccc3n2)cc1` (as salt: hydrochloride) [Example 33, [6-(4-methyl-1H-imidazol-1-yl)-2-(4-methylthiophenyl)]quinoline dihydrochloride] returned a melting point of 294 to 296 °C. On the same count and under the same terms, the value for `COc1ccccc1-c1ccc2cc(-n3ccnc3C)ccc2n1` (as salt: hydrochloride) [Example 27, [6-(2-methyl-1H-imidazol-1-yl)-2-(2-methoxyphenyl)]quinoline dihydrochloride] was 235 °C (dec.). On to `Cc1cn(-c2ccc3nc(-c4ccc(S(C)(=O)=O)cc4)ncc3c2)cn1` (as salt: hydrochloride) [Example 11, [6-(4-methyl-1H-imidazol-1-yl)-2-(4-methanesulfonylphenyl)]quinazoline], for which the melting point fell in the range of 276.4 to 281.7 °C. Consider `CS(=O)(=O)c1ccc(-c2ccc3cc(-n4ccnc4)ccc3n2)cc1` [Example 25, [6-(1H-imidazol-1-yl)-2-(4-methanesulfonylphenyl)]quinoline dihydrochloride], for which the “MPE (% inhibition in immobility time)” value in the data set on CD1 Mice (dose 3 mg/Kg OS) is 23%; with CD1 Mice (dose 10 mg/Kg OS), 54%; in the data set with CD1 Mice (dose 30 mg/Kg OS), 40%. In addition, the ED50 in the data set on CD1 Mice (dose yielding 50% reduction of immobility, oral) is reported as 8.7 mg/Kg; OS. Further, on human recombinant MAO-B, the IC50 was above 10 µM.

Regarding `COc1ccc(-c2ncc3cc(-n4cnc(C)c4)ccc3n2)cc1` (as salt: hydrochloride) [Example 6, [6-(4-methyl-1H-imidazol-1-yl)-2-(4-methoxyphenyl)]quinazoline], the melting point is 201 to 202 °C. For `COc1ccc(-c2ccc3cc(-n4cnc(C)c4)ccc3n2)cc1` (as salt: hydrochloride) [Example 31, [6-(4-methyl-1H-imidazol-1-yl)-2-(4-methoxyphenyl)]quinoline dihydrochloride], the melting point is 276 to 278 °C (dec.). The same measure, in the same setting: the value for `COc1ccc(-c2ccc3cc(-n4ccnc4)ccc3n2)cc1` (as salt: hydrochloride) [Example 18, [6-(1H-imidazol-1-yl)-2-(4-methoxyphenyl)]quinoline dihydrochloride] was 266 to 267 °C; that for `CN(C)c1ccc(-c2ccc3cc(-n4ccnc4)ccc3n2)cc1` (as salt: hydrochloride) [Example 22, [6-(1H-imidazol-1-yl)-2-(4-dimethylaminophenyl)]quinoline trihydrochloride] was 284 to 286 °C. As to `Cc1nccn1-c1ccc2nc(-c3ccccc3)ccc2c1` (as salt: hydrochloride) [Example 29, [6-(2-methyl-1H imidazol-1-yl)-2-(phenyl)]quinoline dihydrochloride], the melting point is 296 to 297 °C. The same measure, in the same setting: the value for `Cc1nccn1-c1ccc2nc(-c3ccoc3)ccc2c1` (as salt: hydrochloride) [Example 28, [6-(2-methyl-1H imidazol-1-yl)-2-(3-furyl)]quinoline dihydrochloride] was 240.1 to 243.2 °C; that for `Cc1cn(-c2ccc3nc(-c4ccoc4)ncc3c2)cn1` [Example 12, [6-(4-methyl-1H-imidazol-1-yl)-2-(3-furyl)]quinazoline] was 160.5 to 163.2 °C; that for `COc1ccc(-c2ncc3cc(-n4ccnc4C)ccc3n2)cc1` (as salt: hydrochloride) [Example 3, [6-(2-methyl-1H-imidazol-1-yl)-2-(4-methoxyphenyl)]quinazoline] was 198.3 to 200.3 °C. Still for that read-out and setting: with `COc1ccccc1-c1ccc2cc(-n3ccnc3)ccc2n1` (as salt: hydrochloride) [Example 19, [6-(1H-imidazol-1-yl)-2-(2-methoxyphenyl)]quinoline dihydrochloride] the figure was 251.5 to 252 °C.

Regarding `c1ccc2oc(C3=NCCN3)cc2c1` [Example 2-BFI, 2-benzofuranylimidazoline, reference compound], the IC50 was 0.007 µM at I2 Imidazoline Receptor and above 1 µM at human recombinant MAO-A. On to `c1ccc(-c2ccc3cc(-n4ccnc4)ccc3n2)cc1` [Example 17], for which the IC50 turned out to be 0.42 µM on I2 Imidazoline Receptor and 10 µM on human recombinant MAO-B (read-out: MAO B activity IC50). `COc1cccc(-c2ncc3cc(-n4cnc(C)c4)ccc3n2)c1` [Example 8, [6-(4-methyl-1H-imidazol-1-yl)-2-(3-methoxyphenyl)]quinazoline] registered a melting point of 294 to 296 °C.
